Measured values from the PolyMetriX glass transition set.
± gives the standard deviation of the reports.

SMILES | glass transition temperature [°C]
*c1ccc(-c2ccc(Oc3ccc(C4(C)CC(C)(C)c5ccc(Oc6ccc(-c7ccc(-n8c(=O)c9cc%10c(=O)n(*)c(=O)c%10cc9c8=O)cc7)cc6C(F)(F)F)cc54)cc3)c(C(F)(F)F)c2)cc1 (repeat unit) | 265.00
*C(=O)c1ccc2c(c1)C(=O)N(c1ccc(N(c3ccc(C#N)cc3)c3ccc(N4C(=O)c5ccc(*)cc5C4=O)cc3)cc1)C2=O (repeat unit) | 315.00
*Sc1ccc(C(=O)c2ccc(C(c3ccc(C(=O)c4ccc(*)cc4)cc3)(C(F)(F)F)C(F)(F)F)cc2)cc1 (repeat unit) | 175.00
*c1ccc2c(c1)C(=O)N(c1cccc3c(N4C(=O)c5ccc(C(*)(C(F)(F)F)C(F)(F)F)cc5C4=O)cccc13)C2=O (repeat unit) | 390.00
*Oc1ccc(Oc2ccc(C(=O)c3cccc4cccc(C(=O)c5ccc(*)cc5)c34)cc2)cc1C(C)(C)C (repeat unit) | 230.00
*/C(=C/c1cc(OC)c(/C=C(/c2ccc(*)cc2)c2ccc(C(F)(F)F)cc2)cc1OC)c1ccc(C(F)(F)F)cc1 (repeat unit) | 208.00
*Sc1c(C)cc(*)cc1C (repeat unit) | 198.00
*C(=O)Nc1ccc(S(=O)(=O)c2ccc(NC(=O)c3ccc4c(c3)C(=O)N(c3ccc(NC(=O)Nc5ccc(N6C(=O)c7ccc(*)cc7C6=O)cc5)cc3)C4=O)cc2)cc1 (repeat unit) | 205.00
*Oc1ccc(C2(c3ccc(OC(=O)c4ccc(C(*)=O)cc4)cc3)CCCCC2)cc1 (repeat unit) | 275.00
*CC(*)(C)C(=O)OC (repeat unit) [poly(methyl methacrylate)] | 108.92 ± 15
*c1ccc(Cc2ccc(N3C(=O)c4cccc5c(N6CCC(CCCC7CCN(c8ccc9c%10c(cccc8%10)C(=O)N(*)C9=O)CC7)CC6)ccc(c45)C3=O)c(C(C)(C)C)c2)cc1C(C)(C)C (repeat unit) | 202.70
*c1ccc2c(c1)C(=O)N(c1cccc(Oc3cc(Oc4cccc(N5C(=O)c6ccc(C(*)(C(F)(F)F)C(F)(F)F)cc6C5=O)c4)ccc3P(=O)(c3ccccc3)c3ccccc3)c1)C2=O (repeat unit) | 230.00
*C(=O)Nc1ccc(Oc2ccc(Oc3ccc(NC(=O)c4ccc5c(c4)C(=O)N(c4ccc(Oc6ccc(C7(c8ccc(Oc9ccc(N%10C(=O)c%11ccc(*)cc%11C%10=O)cc9)cc8)NC(=O)c8ccccc87)cc6)cc4)C5=O)cc3)cc2)cc1 (repeat unit) | 300.00
*CC(*)C(=O)Oc1ccc(OC)cc1 (repeat unit) | 50.50
*CC(*)C(=O)OC (repeat unit) [Poly(methyl acrylate) ] | 9 ± 2
*OC(=O)C(C)NC(=O)CCCCCCCCCCC(=O)NC(C)C(=O)OC1COC2C(*)COC12 (repeat unit) | 28.00
*c1ccc(Oc2ccc(C3(c4ccc(Oc5ccc(-c6nc(-c7ccccn7)nnc6*)cc5)cc4)c4ccccc4-c4ccccc43)cc2)cc1 (repeat unit) | 277.00

The remaining lines, values ahead:

glass transition temperature [°C] | SMILES
101.00 | *CCCN(C)c1ccc(C(=O)c2ccc(N(*)C)cc2)cc1 (repeat unit)
18.00 | *CC(*)(C)C(=O)OCCCCCCCCCOc1ccc2cc(C(=O)Oc3ccccc3)ccc2c1 (repeat unit)
52.00 | *CCC[Si](*)(c1ccccc1)c1ccc(N(C)C)cc1 (repeat unit)
73.00 | *CCOC(=O)c1ccc(-c2ccc(C(=O)O*)cc2C)c(C)c1 (repeat unit)
31.00 | *CC(*)(C)C(=O)OCCCCCCCCCCCn1c2ccccc2c2ccccc21 (repeat unit)
180.00 | *CC(CC(*)(C#N)C#N)c1ccc(OC(C)=O)cc1 (repeat unit)
70.00 | *CC(c1ccccc1)C1C(=O)N(CCCCCCCCCCCC)C(=O)C1* (repeat unit)
